Patent publication US11248022B2, “Glypican-3 peptide reagents and methods” (THE REGENTS OF THE UNIVERSITY OF MICHIGAN, priority 2017, dated 2022)
Where “and” joins values, the source holds several entries; their conditions need not be identical. Equal values may be shown once. Ends that are not written are not given here.

Experiments:
[1] = tested on: Hep3B cells; assay: Apparent dissociation constant on Hep3B cells by flow cytometry; assay type: binding, human
Experimental: The apparent dissociation constant (kd) was measured for the optimized GPC3 peptide to Hep3B cells to provide an assessment of peptide binding affinity. The ALL*-Cy5.5 peptide reagent was serially diluted in PBS at concentrations ranging from 0 to 200 nM in 25 nM increments and incubated with Hep3B cells. The mean fluorescence intensities was measured on flow cytometry. The equilibrium dissociation constant kd=1/ka was calculated by performing a least squares fit of the data to the non-linear equation I=(I0+Imaxka[X])/([…]). I0and Imax are the initial and maximum fluorescence intensities, corresponding to no peptide and at saturation, respectively, and [X] represents the concentration of the bound peptide.

[2] = tested on: human HCC; assay: Immunofluorescence on human liver biopsies ex vivo
Excerpt: Specific peptide binding to human HCC was confirmed on patient biopsies (n=41) ex vivo from University of Michigan Hospital. […] Antibody staining of the same tissue confirmed minimal GPC3 expression, FIG. 15B. Binding by ALL*-Cy5.5 peptide and AF488-labeled anti-GPC3 antibody co-localized on normal liver specimen with Pearson's correlation coefficient of p=0.62, FIG. 15C. Co-stained regions were also imaged at 40×, FIG. 15D and 100× (dashed box in Panel D) magnifications, FIG. 15E.
Quantitative comparison of ALL*-Cy5.5 binding to human HCC with normal liver, adenoma and cirrhosis tissue was summarized in FIG. 15U.

[3] = tested on: HCC xenograft tumor overexpressing GPC3; assay: In vivo handheld dual axes confocal endomicroscope imaging; set-up: species or system mice
Experimental: GPC3 expression from human HCC xenograft tumors was evaluated in real time by collecting optical sections in vivo using a handheld 5.5 mm diameter dual axes confocal endomicroscope. A solid-state diode laser (300 mW, CNI Laser Inc.) provided illumination at λex=671 nm. A parabolic mirror focused the illumination and collection beams to overlap below the tissue surface with lateral and axial resolution of 2 and 5 μm, respectively. A compact, 3D monolithic scanner located in the distal tip provided large vertical displacements and wide angular deflections to produce images in the vertical (XZ) and horizontal (XY) planes with a FOV of 1000×430 and 1000×1000 μm^2, respectively. NIR fluorescence is collected and passes through a band pass filter (FF01-716/40-25, Semrock) that transmits from 696-736 nm with >93% efficiency for detection with a photomultiplier tube (PMT, H7422PA-40, Hamamatsu) detector. The peptides were injected via the tail vain, and dissected away the skin overlying the tumor to gain access. The distal tip of the endomicroscope was placed in contact with the tumor using a drop of saline to couple the light. Laser power <2 mW on the tissue was used to avoid photobleaching. NIR fluorescence images were collected at 5 frames per sec. 3D volumetric images were reconstructed from a series of images collected in the vertical plane using Amira software (ver 5.4.3, FEI Corporation).
The probe was small enough to be comfortably held in the surgeon's hand during surgery, FIG. 12A, for in vivo imaging of biomarker expression. Its diameter was 5.5 mm and delivered 671 nm near-infrared laser at 2 mW. Mouse carrying HCC xenograft tumor overexpressing GPC3 was first injected with 250 μL 300 μM ALL*-Cy5.5 peptide intravenously and after 2 hours the probe was held in contact with exposed subcutaneous tumor to acquire in vivo peptide binding images, FIG. 12B. Images were collected in either the vertical or horizontal plane with 430 μm depth or 1000×1000 μm^2 area, respectively, at 5 frames per second. With measured lateral resolution of 2.49 μm and axial resolution of 4.98 μm, each peptide stained cell can be clearly seen (arrows). […] Strong uptake (arrows) of ALL*-Cy5.5 in tumor was captured on optical sections collected in the horizontal (1000×1000 μm^2, Video 1) FIG. 12C and vertical (1000×430 μm^2, Video 2) FIG. 12D planes, respectively. A series of vertical cross-section images were reconstructed into 3D MIP volume (Video 3), FIG. 12E.

[4] = tested on: SK-Hep1 xenograft tumors; assay: Immunostaining on GPC3 negative SK-Hep1 xenograft sections; set-up: species or system mice; conditions: no GPC3 expression
Excerpt: FIGS. 18A-D show immunostaining on GPC3 negative HCC xenograft tumor.
The specimens were also sectioned for collection of confocal images to perform microscopic validation of peptide binding ex vivo.

[5] = tested on: human HBV-derived HCC; assay: Immunofluorescence on human HBV-derived HCC specimens; conditions: 5 μM, 15 min
Experimental: Formalin-fixed specimens of HBV-derived HCC from the bio-bank at the Peking University People's Hospital were used. The specimens were deparaffinized, and antigen retrieval was performed using standard methods. Specimens of HCC and non-tumorous liver were cut in 10 μm sections, and incubated with the ALL*-Cy5.5 peptide reagent at a concentration of 5 μM in 1× PBS for 15 min at RT. The sections were washed 3× with PBS and incubated overnight at 4° C. with a 1:1000 dilution of primary anti-GPC3 antibody (Santa Cruz Biotechnology, 1G12, sc-65443) overnight at 4° C. The sections were washed with PBS 3× and incubated with 1:500 dilution of Alexa Fluor 488-labeled secondary goat […] antibody (Invitrogen) for 1 hour at RT. The sections were fixed with 4% PFA for 10 min. The sections were then mounted with ProLong Gold reagent containing DAPI (Invitrogen). Confocal fluorescence images were collected with DAPI, FITC and Cy5.5 filters. A Pearson's correlation coefficient will be measured to assess co-localization of peptide and antibody binding.

[6] = tested on: GPC3 positive tumor (from Hep3B cells); assay: In vivo whole body fluorescent imaging of HCC xenograft; conditions: 2 hours post injection
Experimental: Mice bearing HCC xenograft tumor (arrowheads) were i.v. injected with 250 μL of 300 μM near NIR GPC3 targeting peptide ALL*-Cy5.5, scrambled control peptide QLE*-Cy5.5 and unlabeled Cy5.5 free dye alone. ALL*-Cy5.5 was also injected in mice bearing GPC3 negative tumor (from SK Hep-1 cells, arrows) as control of EPR effect. Pre-injection imaging confirmed no autofluorescence was present.

[7] = 41 patients, log-transformed data

**Q.** How did the Kd [1] turn out when “ALLANHEELFQT (SEQ ID NO: 1) peptide labeled with Cy5.5 via a GGGSK linker on the C-terminus (ALLANHEELFQTGGGSK-{Cy5.5}) [ALL*-Cy5.5]” was run?
**A.** 71 nM and 71.3 nM

**Q.** What about the “signal in HCC relative to adenoma” value [2, 7] of the same sequence?
**A.** 2.48 fold

**Q.** What about the “signal in HCC relative to cirrhosis” value [2, 7] of the same sequence?
**A.** 2.05 fold

**Q.** And the “signal in HCC relative to normal” value [2, 7]?
**A.** 3.43 fold

**Q.** And the immunofluorescence staining ([2]; HCC tissue)?
**A.** Strong intense staining

**Q.** What about the immunofluorescence staining ([2]; adenoma tissue) of the same sequence?
**A.** Minimal staining

**Q.** And the immunofluorescence staining ([2]; cirrhotic liver tissue)?
**A.** moderate diffuse staining

**Q.** And the immunofluorescence staining ([2]; human normal liver tissue)?
**A.** negative staining

**Q.** What about the “fluorescent signal relative to QLE*-Cy5.5” value ([3]; 2 hours after i.v. injection) of the same sequence?
**A.** 2.9 fold

**Q.** What about the “fluorescent intensity at tumor” value ([3]; 2 hours after i.v. injection, n=8) of the same sequence?
**A.** 47±13

**Q.** What about the “uptake/staining in tumor on optical sections” value ([3]; horizontal and vertical planes) of the same sequence?
**A.** Strong uptake

**Q.** What about the “staining of xenograft sections” value [4] of the same sequence?
**A.** No staining

**Q.** And the “binding to section of HBV-derived HCC on immunofluorescence” value [5]?
**A.** strong binding

**Q.** And the “mean tumor signal vs scrambled peptide, GPC3 negative tumor and free dye” value [6]?
**A.** significantly higher

**Q.** What about the “target-to-background (T/B) ratio” value ([6]; mean±SD) of the same sequence?
**A.** 3.91±0.58
